Experimental data as given in PubChem BioAssay (NCI).
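Values below derive from 48-hour exposures of cells grown in 96-well plates, with endpoints linearly interpolated between the two concentrations bracketing the appropriate inhibition level. TGI is the concentration that stops growth completely.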

How the values were obtained:
Assay in all cases: NCI anticancer screen, dose series, 48 h
HT29 colon = tested on: HT29 colon
IGROV1 ovarian = tested on: IGROV1 ovarian
HOP-92 NSCLC = tested on: HOP-92 NSCLC
TK-10 renal = tested on: TK-10 renal
K-562 leukemia = tested on: K-562 leukemia
MDA-N = tested on: MDA-N
HS 578T breast = tested on: HS 578T breast
SF-268 CNS = tested on: SF-268 CNS
CCRF-CEM leukemia = tested on: CCRF-CEM leukemia
T-47D breast = tested on: T-47D breast
COLO 205 colon = tested on: COLO 205 colon

Compound `OCC(O)C(O)C(O)C(O)/C=N/Nc1nc(O)c(/C=C2\C=Nc3ccccc32)[nH]1` (stereo unspecified) has a TGI (HT29 colon) of over 100 µM, a TGI (IGROV1 ovarian) of over 100 µM and a TGI (HOP-92 NSCLC) of over 100 µM. For the same compound, the TGI (TK-10 renal) was over 100 µM, the TGI (K-562 leukemia) was over 100 µM and the TGI (MDA-N) was over 100 µM. For the same compound, the TGI (HS 578T breast) was over 100 µM, the TGI (SF-268 CNS) was over 100 µM and the TGI (CCRF-CEM leukemia) was over 100 µM. The TGI (T-47D breast) was over 100 µM and the TGI (COLO 205 colon) was over 100 µM.

`CN(C)c1ccc(/C=c2/c3cc([N+](=O)[O-])ccc3n3c2cc(-c2ccccc2)[n+]3C)cc1` gave a TGI (HT29 colon) of 6.76 µM, a TGI (IGROV1 ovarian) of 2.29 µM and a TGI (HOP-92 NSCLC) of 3.16 µM. It also gave a TGI (TK-10 renal) of 9.32 µM, a TGI (K-562 leukemia) of 7.42 µM and a TGI (MDA-N) of 1.66 µM. The TGI (HS 578T breast) was 7.97 µM, the TGI (SF-268 CNS) was 2.86 µM and the TGI (CCRF-CEM leukemia) was 5.57 µM. The TGI (T-47D breast) was 1.81 µM and the TGI (COLO 205 colon) was 1.48 µM.

Work on `CC1CN=C(c2ccc(COc3ccc(C4=NCC(C)N4)cc3)cc2)N1` (stereo unspecified) yielded a TGI (HT29 colon) of over 100 µM, a TGI (IGROV1 ovarian) of over 100 µM and a TGI (HOP-92 NSCLC) of over 100 µM. For the same compound, the TGI (TK-10 renal) was over 100 µM, the TGI (K-562 leukemia) was over 100 µM and the TGI (MDA-N) was over 100 µM. For the same compound, the TGI (HS 578T breast) was over 100 µM, the TGI (SF-268 CNS) was over 100 µM and the TGI (CCRF-CEM leukemia) was over 100 µM. The TGI (T-47D breast) was over 100 µM and the TGI (COLO 205 colon) was over 100 µM.

For `CCCC1(N)CC(OC)OC(C)C1O` (stereo unspecified), the TGI (HT29 colon) was over 100 µM, the TGI (IGROV1 ovarian) was over 100 µM and the TGI (HOP-92 NSCLC) was over 100 µM. For the same compound, the TGI (TK-10 renal) was over 100 µM, the TGI (K-562 leukemia) was over 100 µM and the TGI (MDA-N) was over 100 µM. The TGI (HS 578T breast) was over 100 µM, the TGI (SF-268 CNS) was over 100 µM and the TGI (CCRF-CEM leukemia) was over 100 µM. For the same compound, the TGI (T-47D breast) was over 100 µM and the TGI (COLO 205 colon) was over 100 µM.

Compound `COc1ccc(C[C@@H]2OC3(C=CC(=O)C=C3)O[C@H]2Cc2ccc(OC)cc2)cc1` has a TGI (HT29 colon) of 2.18 µM, a TGI (IGROV1 ovarian) of 1.16 µM and a TGI (HOP-92 NSCLC) of 1.82 µM. For the same compound, the TGI (TK-10 renal) was 1.21 µM, the TGI (K-562 leukemia) was over 100 µM and the TGI (MDA-N) was 1.62 µM. For the same compound, the TGI (HS 578T breast) was 23.3 µM, the TGI (SF-268 CNS) was 3.07 µM and the TGI (CCRF-CEM leukemia) was 0.521 µM. For the same compound, the TGI (T-47D breast) was over 100 µM and the TGI (COLO 205 colon) was 2.79 µM.

`COc1cc(C=O)cc(C=Nc2ccc(S(N)(=O)=O)cc2)c1O` gave a TGI (HT29 colon) of over 100 µM, a TGI (IGROV1 ovarian) of over 100 µM and a TGI (HOP-92 NSCLC) of 21.7 µM. It also gave a TGI (TK-10 renal) of over 100 µM, a TGI (K-562 leukemia) of over 100 µM and a TGI (MDA-N) of 28.1 µM. It also gave a TGI (HS 578T breast) of 6.16 µM, a TGI (SF-268 CNS) of 39.2 µM and a TGI (CCRF-CEM leukemia) of 33.8 µM. The TGI (T-47D breast) was over 100 µM and the TGI (COLO 205 colon) was 76.9 µM.

`CC(/C=N/NC1=NCCCN1)=N\NC1=NCCCN1` gave a TGI (HT29 colon) of over 100 µM, a TGI (IGROV1 ovarian) of over 100 µM and a TGI (HOP-92 NSCLC) of over 100 µM. It also gave a TGI (TK-10 renal) of over 100 µM, a TGI (K-562 leukemia) of over 100 µM and a TGI (MDA-N) of over 100 µM. The TGI (HS 578T breast) was over 100 µM, the TGI (SF-268 CNS) was over 100 µM and the TGI (CCRF-CEM leukemia) was over 100 µM. The TGI (T-47D breast) was over 100 µM and the TGI (COLO 205 colon) was over 100 µM.

In the case of `COP(C)(=O)C(Cc1c[nH]c2ccccc12)NC(=O)OCc1ccccc1` (stereo unspecified), the TGI (HT29 colon) is reported as over 100 µM, the TGI (IGROV1 ovarian) is reported as over 100 µM and the TGI (HOP-92 NSCLC) is reported as over 100 µM. The TGI (TK-10 renal) was over 100 µM, the TGI (K-562 leukemia) was over 100 µM and the TGI (MDA-N) was over 100 µM. For the same compound, the TGI (HS 578T breast) was over 100 µM, the TGI (SF-268 CNS) was over 100 µM and the TGI (CCRF-CEM leukemia) was over 100 µM. The TGI (T-47D breast) was over 100 µM and the TGI (COLO 205 colon) was over 100 µM.

`CC(=O)OCC1OC(N2C(S)=C(C#N)C(c3ccco3)C(C(C)=O)=C2c2ccccc2)C(OC(C)=O)C(OC(C)=O)C1OC(C)=O` (stereo unspecified) showed a TGI (HT29 colon) of over 100 µM, a TGI (IGROV1 ovarian) of over 100 µM and a TGI (HOP-92 NSCLC) of 95.2 µM. The TGI (TK-10 renal) was over 100 µM, the TGI (K-562 leukemia) was over 100 µM and the TGI (MDA-N) was over 100 µM. The TGI (HS 578T breast) was 48.4 µM, the TGI (SF-268 CNS) was over 100 µM and the TGI (CCRF-CEM leukemia) was over 100 µM. For the same compound, the TGI (T-47D breast) was over 100 µM and the TGI (COLO 205 colon) was over 100 µM.

In the case of `C#CCCCC(=O)N(C(=O)CS(=O)CC)c1ccccc1` (stereo unspecified), the TGI (HT29 colon) is reported as over 100 µM, the TGI (IGROV1 ovarian) is reported as over 100 µM and the TGI (HOP-92 NSCLC) is reported as over 100 µM. The TGI (TK-10 renal) was over 100 µM, the TGI (K-562 leukemia) was over 100 µM and the TGI (MDA-N) was over 100 µM. For the same compound, the TGI (HS 578T breast) was over 100 µM, the TGI (SF-268 CNS) was over 100 µM and the TGI (CCRF-CEM leukemia) was over 100 µM. It also gave a TGI (T-47D breast) of over 100 µM and a TGI (COLO 205 colon) of over 100 µM.

In the case of `C=CC(Br)(CBr)CCC(Br)C(C)C` (stereo unspecified), the TGI (HT29 colon) is reported as 8.4 µM, the TGI (IGROV1 ovarian) is reported as 11.1 µM and the TGI (HOP-92 NSCLC) is reported as 23.2 µM. For the same compound, the TGI (TK-10 renal) was 10.4 µM, the TGI (K-562 leukemia) was 6.94 µM and the TGI (MDA-N) was 6.37 µM. For the same compound, the TGI (HS 578T breast) was 7.73 µM, the TGI (SF-268 CNS) was 25.7 µM and the TGI (CCRF-CEM leukemia) was 3.46 µM. The TGI (T-47D breast) was 0.971 µM and the TGI (COLO 205 colon) was 19.8 µM.

`OC(CN1CCCCC1)c1ccc(/C=C/c2ccc(Cl)cc2)cc1` (stereo unspecified) gave a TGI (HT29 colon) of over 100 µM, a TGI (IGROV1 ovarian) of 66.5 µM and a TGI (HOP-92 NSCLC) of over 100 µM. It also gave a TGI (TK-10 renal) of over 100 µM, a TGI (K-562 leukemia) of over 100 µM and a TGI (MDA-N) of over 100 µM. The TGI (HS 578T breast) was over 100 µM, the TGI (SF-268 CNS) was over 100 µM and the TGI (CCRF-CEM leukemia) was over 100 µM. For the same compound, the TGI (T-47D breast) was over 100 µM and the TGI (COLO 205 colon) was 36 µM.

For `CCCCCCCCCCCCCCCCP(=O)([O-])OCC[N+](C)(C)C`, the TGI (HT29 colon) was 25.5 µM, the TGI (IGROV1 ovarian) was 7.2 µM and the TGI (HOP-92 NSCLC) was 29 µM. For the same compound, the TGI (TK-10 renal) was 3.51 µM, the TGI (K-562 leukemia) was 35.7 µM and the TGI (MDA-N) was 30 µM. For the same compound, the TGI (HS 578T breast) was 33.4 µM, the TGI (SF-268 CNS) was 34.1 µM and the TGI (CCRF-CEM leukemia) was 24.7 µM. The TGI (T-47D breast) was 35.5 µM and the TGI (COLO 205 colon) was 20.5 µM.

`CC1CC[C@@]2(OC1)OC1C[C@H]3[C@@H]4CCC5CC(O)CC[C@]5(C)[C@H]4C/C(=N\N(C)C)[C@]3(C)C1[C@@H]2C` (stereo partly specified) showed a TGI (HT29 colon) of 39.9 µM, a TGI (IGROV1 ovarian) of over 100 µM and a TGI (HOP-92 NSCLC) of over 100 µM. The TGI (TK-10 renal) was 86.9 µM, the TGI (K-562 leukemia) was over 100 µM and the TGI (MDA-N) was 41.4 µM. The TGI (HS 578T breast) was 97.7 µM, the TGI (SF-268 CNS) was 99.4 µM and the TGI (CCRF-CEM leukemia) was over 100 µM. For the same compound, the TGI (T-47D breast) was over 100 µM and the TGI (COLO 205 colon) was 45 µM.

`Nc1ccc(-c2nc3ccccc3s2)cc1Br` showed a TGI (HT29 colon) of over 100 µM, a TGI (IGROV1 ovarian) of over 100 µM and a TGI (HOP-92 NSCLC) of over 100 µM. The TGI (TK-10 renal) was over 100 µM, the TGI (K-562 leukemia) was over 100 µM and the TGI (MDA-N) was over 100 µM. It also gave a TGI (HS 578T breast) of over 100 µM, a TGI (SF-268 CNS) of over 100 µM and a TGI (CCRF-CEM leukemia) of over 100 µM. The TGI (T-47D breast) was over 100 µM and the TGI (COLO 205 colon) was over 100 µM.

In the case of `CC(=O)N(CN1C(=O)CCC1C(=O)O)c1ccccc1Cl` (stereo unspecified), the TGI (HT29 colon) is reported as over 100 µM, the TGI (IGROV1 ovarian) is reported as over 100 µM and the TGI (HOP-92 NSCLC) is reported as over 100 µM. The TGI (TK-10 renal) was over 100 µM, the TGI (K-562 leukemia) was over 100 µM and the TGI (MDA-N) was over 100 µM. It also gave a TGI (HS 578T breast) of over 100 µM, a TGI (SF-268 CNS) of over 100 µM and a TGI (CCRF-CEM leukemia) of over 100 µM. For the same compound, the TGI (T-47D breast) was over 100 µM and the TGI (COLO 205 colon) was over 100 µM.
